Consider 5 molecules from US20230317203A1, “SCREENING METHOD” (University of Leeds, priority 2022, published 2023).

In assay [1] the target is T1, BRISC (Homo sapiens, UniProt P46736+Q15018+Q9NXR7). Kind of assay: IQF K63-linked diUb DUB activity assay, BRISC. It counts as biochemical. Further details: made in house; host or cells: Spodoptera frugiperda (Sf9) insect cells. As to conditions: for inhibition of BRISC DUB activity: IQF assay, BRISC 1 nM. Here is the method:
(§1) BRISC complexes were tested for activity in DUB reaction buffer containing 50 mM HEPES-NaOH pH 7.0, 100 mM NaCl, 0.1 mg/mL BSA, 1 mM DTT, and 0.003% Brij-35. […] Inhibitors were assayed at concentrations up to 200 μM. 20 μL enzyme reactions were carried out in 384-well black flat-bottom low flange plates (Corning; 35373). DUB activity was measured using internally quenched fluorescent (IQF) K63-linked diUb (Lifesensors, catalogue number: DU6303) at 50 or 100 nM. Cleaved diUb was monitored by measuring fluorescence intensity (Ex. 540 nm, Em. 580 nm; dichroic mirror 560 nm). Fluorescence intensity was measured every minute for 30 minutes at 30° C. Fluorescence intensity units for the first 10 minutes were plotted against time to generate a linear reaction progress curve, where the initial velocity (v0) corresponds to the gradient of the curve. IC50 values were calculated using the GraphPad Prism (v8.0) built-in dose-response equation for inhibitor concentration vs. response (variable slope).
(§2) A high throughput biochemical screen was designed to identify inhibitors of BRISC, based on the ability of small molecules to inhibit BRISC cleavage of a K63-linked di-ubiquitin substrate. The di-ubiquitin substrate is designed with a fluorescent TAMRA dye on the proximal ubiquitin moiety and fluorescence quencher on the distal ubiquitin molecule (FIG. 1A). Upon isopeptidase bond cleavage, fluorescence is detected, enabling continuous fluorescent readout of deubiquitylase activity over time (FIG. 1A). The assay conditions were optimised and used to test an in-house compound library comprising of ˜300 published and custom-made kinase inhibitors. From this screen, two hits were identified, compounds AT7519 (well H20) and YM201636 (well P12) (FIG. 1B). The specificity of these compounds was assessed against the broad-spectrum DUB ubiquitin-specific protease-2 (USP2) and the serine protease trypsin which cleave K63-Ub substrate under the same conditions. […] UV-Vis spectroscopy analyses of the compound in well H20 used in the screen compared to the Synkinase and Sellechem AT7519 compounds identified an additional peak in the H20 spectra (FIG. 5C). […] The synthesis of the two isomers was confirmed using mass spectrometry fragmentation analyses (FIG. 5E) and the inhibitory effect of the isomers was tested against BRISC.

Another assay has as its target ARISC (Homo sapiens, UniProt P46736+Q6UWZ7+Q9NXR7). Kind of assay: IQF assay with ARISC. It counts as biochemical. The conditions noted are these: FIG. 1E. An excerpt: (§3) FIGS. 1A-1F show the development a high-throughput screen to identify first-in-class DUB inhibitors. FIG. 1A depicts a diagram of a TAMRA-linked IQF di-ubiquitin substrate (left) and BRISC DUB activity against a fluorescent K63-linked substrate (right).

Assay [2] concerns the target T1, BRISC. As to the kind of experiment: Mass photometry of BRISC oligomeric state. The conditions noted are these: purified BRISC mixed with inhibitor, FIG. 2B. It counts as binding. The protocol:
(§4) Microscope coverslips were prepared as previously described^33. All mass photometry experiments were performed using a One^MP mass photometer (Refeyn Ltd, Oxford, UK). For preliminary BRISC-inhibitor measurements, 1 μM BRISC(FL) was mixed with either DMSO or inhibitor at 330 μM and incubated for 15 minutes on ice. Prior to MP measurement, the BRISC-inhibitor mix was diluted in gel filtration buffer (25 mM HEPES, 150 mM NaCl, 1 mM TCEP) for a final concentration of BRISC at 10 nM (0.05% DMSO). 12 μL of this dilution was used for the final MP measurement, following autofocus stabilisation. […] The BRISC-inhibitor mix was used directly for MP measurement using buffer-free autofocus stabilisation. Movies were recorded for 60 seconds using AcquireMP (Refeyn, UK), and were processed using DiscoverMP (Refeyn, UK). Mass photometry image processing has been previously described^33. Briefly, contrast-to-mass (C2M) calibration was performed using protein standards (66-669 kDa) diluted in gel filtration buffer. […] The mass distribution from each run is in a histogram, where count refers to each landing event and a Gaussian sum is fitted to the data. The relative amount of each species is calculated as the area of each Gaussian, where a refers to the standard deviation of the fitted Gaussian. […] Curves were fitted and EC50 values were calculated using the GraphPad Prism (v8.0) built-in dose-response equation for concentration of agonist vs. response (variable slope).

For assay [3], the system named is BRISC. Kind of assay: Mass photometry of BRISC oligomeric state. It counts as binding, human. The conditions noted are these: mass photometry. The protocol: as §4
The next assay addresses ARISC-RAP80 (Homo sapiens, UniProt P46736+Q6UWZ7+Q9NXR7). Kind of assay: IQF assay with ARISC-RAP80. It counts as biochemical. As to conditions: FIG. 1E.
Source text: as §3

Another assay addresses T2, AMSH-LP (Homo sapiens, UniProt Q96FJ0).
T2 sequence (Q96FJ0 1-436): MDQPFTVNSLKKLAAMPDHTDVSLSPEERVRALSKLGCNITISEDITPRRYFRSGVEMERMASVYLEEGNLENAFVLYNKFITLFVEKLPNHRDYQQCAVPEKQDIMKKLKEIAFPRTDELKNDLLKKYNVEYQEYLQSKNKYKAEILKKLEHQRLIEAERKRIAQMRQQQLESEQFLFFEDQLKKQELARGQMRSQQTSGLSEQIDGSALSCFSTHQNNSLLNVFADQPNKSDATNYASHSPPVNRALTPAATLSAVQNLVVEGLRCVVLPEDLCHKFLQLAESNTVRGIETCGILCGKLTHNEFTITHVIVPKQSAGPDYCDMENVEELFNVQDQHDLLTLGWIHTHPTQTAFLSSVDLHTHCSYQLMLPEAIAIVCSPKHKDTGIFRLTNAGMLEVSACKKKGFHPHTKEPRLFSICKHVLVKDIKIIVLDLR
Kind of assay: IQF assay with JAMM/MPN DUB AMSH-LP. It counts as biochemical. As to conditions: FIG. 1E.
Source text: as §3

The next assay has as its target T3, BRISC(FL) (Homo sapiens, UniProt P46736+Q15018+Q9NXR7).
T3 construct: The four-subunit human BRISC (full-length (FL) and MERIT40ΔN, Abraxas2ΔC) complex was cloned; made in house; host or cells: Spodoptera frugiperda (Sf9) insect cells
As to the kind of experiment: Native mass spectrometry of BRISC with inhibitor. The assay is classed as binding. As to conditions: 10 μM BRISC(FL), 1 mM inhibitor. The protocol:
Samples were buffer exchanged into 500 mM ammonium acetate using Zeba Spin 7K MWCO desalting columns (ThermoFisher). Gold and palladium coated nanospray tips were prepared in-house and mounted on the nano-electrospray ionisation source. Mass spectra were acquired on a Q Exactive Ultra-High Mass Range Hybrid Quadrupole-Orbitrap mass spectrometer (Thermo Fisher), optimised for mass resolution at high m/z ratios. Data were visualised and processed using Mass Lynx (v4.1) and UniDec (v2.7.1).

The test system of the next assay is Trypsin. Kind of assay: IQF di-ubiquitin assay, trypsin specificity. As to conditions: Trypsin 125 nM, K63-Ub substrate. The assay is classed as biochemical.
Source text: (§5) FIGS. 5A-5E show validation of hit compounds.
as §2

For the next assay, the target named is USP2 (Homo sapiens, UniProt O75604). Kind of assay: IQF di-ubiquitin assay, USP2 specificity. The assay is classed as biochemical. The conditions noted are these: USP2 100 nM, K63-Ub substrate.
Source text: as §5, §2

Another assay addresses BRISC BRCC36 Leu169Ala (Homo sapiens, UniProt P46736+Q15018+Q9NXR7, L169A). As to the kind of experiment: IQF DUB assay, BRISC mutant BRCC36 Leu169Ala. The assay is classed as biochemical. The conditions noted are these: FIG. 4C. The protocol:
(§6) The four-subunit human BRISC (full-length (FL) and MERIT40ΔN, Abraxas2ΔC) complex was cloned using the MultiBac system and co-expressed in Spodoptera frugiperda (Sf9) insect cells^32. BRISC mutants were cloned into pFastBac vectors in the Bac-to-Bac system (ThermoFisher), baculoviruses generated in Sf9 cells and used for co-infection of Trichoplusia ni (Tni) cells. All BRISC complexes were purified as previously described^12,13.
as §1, with “20 μL enzyme reactions were carried out in 384-well black flat-bottom low flange plates (Corning; 35373).” left out, “slope). […]” for “slope).”

For a further assay, the target named is BRISC BRCC36 Trp130Ala (Homo sapiens, UniProt P46736+Q15018+Q9NXR7, W130A). As to the kind of experiment: IQF DUB assay, BRISC mutant BRCC36 Trp130Ala. It counts as biochemical. As to conditions: FIG. 4C. Here is the method:
as §6
as §1, with “20 μL enzyme reactions were carried out in 384-well black flat-bottom low flange plates (Corning; 35373).” left out, “slope). […]” for “slope).”

Another assay addresses BRISC Abraxas2 Thr140Ala (Homo sapiens, UniProt P46736+Q15018+Q9NXR7, T140A). Kind of assay: IQF DUB assay, BRISC mutant Abraxas2 Thr140Ala. The assay is classed as biochemical. As to conditions: FIG. 4C. Here is the method:
as §6
as §1, with “20 μL enzyme reactions were carried out in 384-well black flat-bottom low flange plates (Corning; 35373).” left out, “slope). […]” for “slope).”

Assay [4] has as its target T1, BRISC. Further details: made in house; host or cells: Spodoptera frugiperda (Sf9) insect cells. As to conditions: BRISC WT, reference 13; cited from earlier work.

Where two headings read alike, the source gives them in different places.

Chain of USP2 (O75604 whole entry, species assumed): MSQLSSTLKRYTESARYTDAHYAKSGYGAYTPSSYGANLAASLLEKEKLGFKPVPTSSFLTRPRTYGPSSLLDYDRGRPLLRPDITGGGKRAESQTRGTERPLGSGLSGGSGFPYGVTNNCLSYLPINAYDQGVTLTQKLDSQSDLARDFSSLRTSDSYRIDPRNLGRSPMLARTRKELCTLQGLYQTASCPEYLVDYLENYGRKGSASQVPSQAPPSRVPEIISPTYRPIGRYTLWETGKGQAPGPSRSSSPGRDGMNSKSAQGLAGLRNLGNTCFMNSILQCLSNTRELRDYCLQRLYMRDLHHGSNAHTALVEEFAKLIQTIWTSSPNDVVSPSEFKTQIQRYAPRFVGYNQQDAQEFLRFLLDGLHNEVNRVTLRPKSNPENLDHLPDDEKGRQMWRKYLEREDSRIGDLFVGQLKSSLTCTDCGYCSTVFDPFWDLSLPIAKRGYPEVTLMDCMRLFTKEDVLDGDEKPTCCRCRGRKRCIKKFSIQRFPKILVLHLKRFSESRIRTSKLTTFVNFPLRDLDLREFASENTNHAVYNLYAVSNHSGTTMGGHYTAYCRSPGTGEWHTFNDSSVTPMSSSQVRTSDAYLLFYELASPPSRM

For the molecule `O=C(NC1CCN(C(=O)c2c(Cl)cccc2Cl)CC1)c1n[nH]cc1NC(=O)c1c(Cl)cccc1Cl` [AP-5-144], the “inhibition of BRISC DUB activity” value against BRISC [1] is “no inhibition”.
`O=C(NC1CCNCC1)c1[nH]ncc1NC(=O)c1c(Cl)cccc1Cl` [AT7519, reference compound]: the “inhibition of BRISC DUB activity” value on BRISC [1] is given as “neither were found to inhibit”.
As to `O=C(NC1CCNCC1)c1nn(C(=O)c2c(Cl)cccc2Cl)cc1NC(=O)c1c(Cl)cccc1Cl` [JMS-175-2], the “specificity for BRISC over ARISC” value at ARISC is “specifically inhibits BRISC over”. Moreover, the IC50 (commonly the concentration at which inhibition is half-maximal) on BRISC [1] (IQF K63-linked diUb substrate, FIG. 1D, read-out: IC50 inhibiting BRISC) worked out at 1500 nM. In addition, the “inhibition of BRISC DUB activity” value on BRISC [1] was “specific inhibition”. In addition, on BRISC [2], the “mass photometry counts, 1:1:1:1 complex” value turned out to be 8%; the “mass photometry counts, dimer” value was determined as 69%; the “mass photometry counts, monomer” value is recorded as 14%. The “dimer formation at increasing inhibitor concentration” value in the assay with BRISC [3] is recorded as “dose-dependent increase in dimer formation”. For the same molecule, the “specificity for BRISC over ARISC-RAP80” value at ARISC-RAP80 is on record as “specifically inhibits BRISC over”. In addition, on AMSH-LP, the “inhibition of AMSH-LP” value was “no inhibition”. In addition, the “BRISC species by native mass spectrometry” value on BRISC(FL) was “BRISC dimers with a MW consistent with a 4:4:4:4 stoichiometry were observed”.
As for `Nc1ccc(C(=O)Nc2cccc(-c3nc(N4CCOCC4)c4oc5ncccc5c4n3)c2)cn1` [YM201636], on BRISC [1], the “inhibition of BRISC DUB activity” value is “inhibited”. In addition, the inhibition of trypsin entry in the assay with Trypsin is listed as “inhibited”. The “inhibition of USP2” value at USP2 is listed as “inhibited”.

B1: serine hydroxymethyltransferase (protein)
chain: QLVRMAIRAQHSNAAQTQTGEANRGWTGQESLSDSDPEMWELLQREKDRQCRGLELIASENFCSRAALEALGSCLNNKYSEGYPGKRYYGGAEVVDEIELLCQRRALEAFDLDPAQWGVNVQPYSGSPANLAVYTALLQPHDRIMGLDLPDGGHLTHGYMSDVKRISATSIFFESMPYKLNPKTGLIDYNQLALTARLFRPRLIIAGTSAYARLIDYARMREVCDEVKAHLLADMAHISGLVAAKVIPSPFKHADIVTTTTHKTLRGARSGLIFYRKGVKAVDPKTGREIPYTFEDRINFAVFPSLQGGPHNHAIAAVAVALKQACTPMFREYSLQVLKNARAMADALLERGYSLVSGGTDNHLVLVDLRPKGLDGARAERVLELVSITANKNTCPGDRSAITPGGLRLGAPALTSRQFREDDFRRVVDFIDEGVNIGLEVKSKTAKLQDFKSFLLKDSETSQRLANLRQRVEQFARAFPMPGFDEH
For the molecule B1, the “inhibition in the presence of SHMT2” value with BRISC BRCC36 Leu169Ala, with BRISC BRCC36 Trp130Ala and with BRISC Abraxas2 Thr140Ala was “reduced inhibition” in each case. Further, the “inhibition of BRISC DUB activity” value in the assay with BRISC [4] is listed as “potent inhibitor”.
